Where two headings read alike, the source gives them in different places. Each block holds one compound with its values, some of them ahead of it.
What was measured:
MRSA = assay: Adjuvant broth microdilution (antibiotic MIC with SP-BIM at 50 μg/mL); type: cell-based, Staphylococcus aureus; settings: Staphylococcus aureus, antibiotic alone, Table 4, read-out: MIC of antibiotic, No compound
Streptococcus pneumoniae [1] = assay: as above; type: cell-based; settings: Streptococcus pneumoniae; Streptococcus pneumonia; antibiotic alone; Table 5; read-out: MIC of antibiotic, No compound
Klebsiella pneumoniae [2] = assay: as above; type: cell-based; settings: Klebsiella pneumoniae; antibiotic alone; Table 7; read-out: MIC of antibiotic, No compound
Staphylococcus aureus = assay: Checkerboard synergy (FICI) of antibiotics with SP-BIM; type: cell-based; settings: Staphylococcus aureus, Staphylococcus aureus
Streptococcus pneumoniae [3] = assay: as above; type: cell-based
Bacillus cereus = assay: as above; type: cell-based; settings: for MIC: 24 h, antibiotic alone, read-out: MIC antibiotic only
Enterococcus faecium = assay: as above; type: cell-based; settings: Enterococcus faecium
Klebsiella pneumoniae [4] = assay: as above; type: cell-based
Escherichia coli = assay: as above
Candida albicans = assay: as above; design: MIC SP-BIM 13 only / MIC in combination: Antibiotic / MIC antibiotic only: unit not given beside the values
Escherichia coli O157:H7 = assay: Rescue concentrations of SP-BIM that reactivate antibiotic; type: cell-based
[5] = SP-BIM 9 in combination with the labelled antibiotic
[6] = SP-BIM 13 in combination with the labelled antibiotic
[7] = antibiotic in combination with SP-BIM 9
[8] = antibiotic in combination with SP-BIM 13
[9] = Streptococcus pneumoniae, antibiotic + SP-BIM 13

MIC (MRSA): > 250 µg/mL
MIC (Streptococcus pneumoniae [1]): > 250 µg/mL
MIC (Klebsiella pneumoniae [2]): 8 µg/mL
MIC (Staphylococcus aureus; 24 h, antibiotic alone, SP-BIM 9 checkerboard, read-out: MIC antibiotic only): > 250 µg/mL
MIC (Staphylococcus aureus; 24 h, antibiotic alone, SP-BIM 13 checkerboard, read-out: MIC antibiotic only): > 250 µg/mL
MIC (Staphylococcus aureus; MRSA, read-out: MIC of aztreonam only, MRSA, checkerboard): 250 µg/mL
MIC in combination, Antibiotic (Staphylococcus aureus; [7]): 8.0 µg/mL
MIC in combination, Antibiotic (Staphylococcus aureus; [8]): 32 µg/mL
MIC in combination, Antibiotic (Streptococcus pneumoniae [3]; Streptococcus pneumoniae, antibiotic in combination with SP-BIM 13): 8 µg/mL
MIC (Bacillus cereus; SP-BIM 9 checkerboard): > 250 µg/mL
MIC (Bacillus cereus; SP-BIM 13 checkerboard): 250 µg/mL
MIC in combination, SP-BIM 9 (Bacillus cereus; SP-BIM 9 concentration in combination with the labelled antibiotic): 63 µg/mL
MIC in combination, Antibiotic (Bacillus cereus; [7]): 63 µg/mL
MIC in combination, Antibiotic (Bacillus cereus; [8]): 250 µg/mL
MIC in combination, Antibiotic (Klebsiella pneumoniae [4]; [7]): 1 µg/mL
MIC in combination, Antibiotic (Klebsiella pneumoniae [4]; [8]): 8 µg/mL
MIC in combination, Antibiotic (Escherichia coli; [7]): 32 µg/mL
MIC (Candida albicans; 24 h, read-out: MIC antibiotic only): > 250 µg/mL
MIC in combination: Antibiotic (Candida albicans; MIC of the antibiotic in combination with SP-BIM 13): 250
Structure (SMILES): C[C@H]1[C@H](NC(=O)/C(=N\OC(C)(C)C(=O)O)c2csc(N)n2)C(=O)N1S(=O)(=O)O [Aztreonam, aztreonam]
FIC of SP-BIM 9 (Staphylococcus aureus; [5]): 0.12
FIC of SP-BIM 13 (Staphylococcus aureus; [6]): 0.5
Interpretation (Staphylococcus aureus; antibiotic + SP-BIM 9): Synergy (Synergy: FICI≤0.5)
Σ FIC (Staphylococcus aureus; antibiotic + SP-BIM 9): <0.16
Interpretation (Staphylococcus aureus; antibiotic + SP-BIM 13): Additive (Additive: FICI>0.5-1.0)
Σ FIC (Staphylococcus aureus; antibiotic + SP-BIM 13): <0.6
FIC of antibiotic (Staphylococcus aureus; in combination with SP-BIM 9): 0.03
FIC of antibiotic (Staphylococcus aureus; in combination with SP-BIM 13): 0.1
Σ FIC (Streptococcus pneumoniae [3]; Streptococcus pneumonia (title: Streptococcus pyogenes), antibiotic + SP-BIM 9): <0.00
FIC of SP-BIM 13 (Streptococcus pneumoniae [3]; Streptococcus pneumoniae, SP-BIM 13 in combination with the labelled antibiotic): 0.3
Interpretation (Streptococcus pneumoniae [3]; [9]): Synergy (Synergy: FICI≤0.5)
Σ FIC (Streptococcus pneumoniae [3]; [9]): <0.3
FIC of antibiotic (Streptococcus pneumoniae [3]; Streptococcus pneumoniae, in combination with SP-BIM 13): 0.1
FIC of SP-BIM 9 (Bacillus cereus; [5]): 0.252
FIC of SP-BIM 13 (Bacillus cereus; [6]): 0.5
Interpretation (Bacillus cereus; antibiotic + SP-BIM 9): Synergy (Synergy: FICI≤0.5)
Σ FIC (Bacillus cereus; antibiotic + SP-BIM 9): <0.5
Interpretation (Bacillus cereus; antibiotic + SP-BIM 13): Indifferent (Indifferent: FICI>1.0-4.0)
Σ FIC (Bacillus cereus; antibiotic + SP-BIM 13): 1.5
FIC of antibiotic (Bacillus cereus; in combination with SP-BIM 9): 0.252
FIC of antibiotic (Bacillus cereus; in combination with SP-BIM 13): 1.00
FIC of SP-BIM 13 (Enterococcus faecium; [6]): 1.0
Interpretation (Enterococcus faecium; antibiotic + SP-BIM 13): Indifferent (Indifferent: FICI>1.0-4.0)
Σ FIC (Enterococcus faecium; antibiotic + SP-BIM 13): 2.0
FIC of antibiotic (Enterococcus faecium; in combination with SP-BIM 13): 1.0
FIC of SP-BIM 9 (Klebsiella pneumoniae [4]; [5]): 0.064
FIC of SP-BIM 13 (Klebsiella pneumoniae [4]; [6]): 0.3
Interpretation (Klebsiella pneumoniae [4]; antibiotic + SP-BIM 9): Synergy (Synergy: FICI≤0.5)
Σ FIC (Klebsiella pneumoniae [4]; antibiotic + SP-BIM 9): <0.1
Interpretation (Klebsiella pneumoniae [4]; antibiotic + SP-BIM 13): Synergy (Synergy: FICI≤0.5)
Σ FIC (Klebsiella pneumoniae [4]; antibiotic + SP-BIM 13): <0.3
FIC of antibiotic (Klebsiella pneumoniae [4]; in combination with SP-BIM 9): 0.008
FIC of antibiotic (Klebsiella pneumoniae [4]; in combination with SP-BIM 13): 0.1
FIC of SP-BIM 9 (Escherichia coli; [5]): 0.5
FIC of SP-BIM 13 (Escherichia coli; [6]): 1.0
Interpretation (Escherichia coli; antibiotic + SP-BIM 9): Synergy (Synergy: FICI≤0.5)
Σ FIC (Escherichia coli; antibiotic + SP-BIM 9): <0.8
Interpretation (Escherichia coli; antibiotic + SP-BIM 13): Indifferent (Indifferent: FICI>1.0-4.0)
Σ FIC (Escherichia coli; antibiotic + SP-BIM 13): <2.0
FIC of antibiotic (Escherichia coli; combination with SP-BIM 13): 1.0
FIC of antibiotic (Escherichia coli; in combination with SP-BIM 9): 0.256
FIC of SP-BIM 13 (Candida albicans; [6]): 1.0
Interpretation (Candida albicans; antibiotic + SP-BIM 13): Indifferent (Indifferent: FICI>1.0-4.0)
Σ FIC (Candida albicans; antibiotic + SP-BIM 13): <2.0
FIC of antibiotic (Candida albicans; combination with SP-BIM 13): 1.0

Structure (SMILES): Oc1ccc2[nH]cc(C(c3ccc(Br)cc3)c3c[nH]c4ccc(O)cc34)c2c1 [SP-BIM 26, 3,3′-((4-bromophenyl)methylene)bis(1H-indol-5-ol)]
MIC of vancomycin in combination with […] SP-BIM 26 (Escherichia coli O157:H7; E. coli O157:H7): 4 µg/mL
MIC (Escherichia coli O157:H7; Escherichia coli, read-out: MIC (single agent)): > 250 µg/mL
